# Paper PMC7136079 (Translational and Clinical Pharmacology, 2020)
# Read-outs that look alike come from different tables or passages of the source.
# Assays:
# [1] = cited from earlier work; for within-subject variability (coefficient of variation) of Cmax: ref unpublished previous study results
Structure (SMILES),time to reach Cmax ([1]; extended-release formulations) [h],"Tmax (fed state (high fat meal), given as loose combination gemigliptin 50 mg + metformin XR 1,000 mg, n = 30, median [minimum–maximum])","Tmax (human, plasma, oral) [h]",Tmax ([1]; 50 mg),terminal half-life (t1/2) [1] [h],time at which maximum concentration (Cmax) was attained [1] [h],pharmacokinetic dose linearity ([1]; dose range of 50–400 mg),"within-subject variability (coefficient of variation) of Cmax ([1]; fasted state, 2016)","within-subject variability (coefficient of variation) of Cmax ([1]; fed state, 2015)","AUCinf geometric mean ratio (90% CI) (fed state, ratio of the FDC to the loose combination)"
CN(C)C(=N)N=C(N)N [Metformin],4 to 8,6.00 [4.00–8.03] h,6.04,–,–,–,–,–,–,–
N[C@@H](CC(=O)N1CCc2c(nc(C(F)(F)F)nc2C(F)(F)F)C1)CN1CC(F)(F)CCC1=O [Gemigliptin],–,–,–,approximately 2 hours,17.1,2,linearity,approximately 23.4%,approximately 20.4%,0.9940 (0.9691–1.0195)
